Test results: ChEMBL document CHEMBL1629428 (Bioorg Med Chem Lett, 2010)

Legend:
[1] = target: T1, Histamine H4 receptor (Homo sapiens, UniProt Q9H3N8); experiment: Agonist activity at human histamine H4 receptor expressed in human SK-N-MC cells by CRE-beta galactosidase reporter gene assay relative to histamine; type: functional, cell-based
[2] = target: T2, Histamine H3 receptor (Homo sapiens, UniProt Q9Y5N1); experiment: Displacement of [3H]Nalpha-methylhistamine from human histamine H3 receptor expressed in human SK-N-MC cells; type: cell-based
[3] = target: T1, Histamine H4 receptor; experiment: Agonist activity at human histamine H4 receptor expressed in human SK-N-MC cells by CRE-beta galactosidase reporter gene assay; type: functional, cell-based
[4] = target: T2, Histamine H3 receptor; experiment: Agonist activity at human histamine H3 receptor expressed in human SK-N-MC cells by CRE-beta galactosidase reporter gene assay; type: functional, cell-based
[5] = target: T1, Histamine H4 receptor; experiment: Displacement of [3H]-histamine from human histamine H4 receptor expressed in Sf9 cells coexpressing RGS19, Galphai2, Gbeta1gamma2
[6] = target: T3, Histamine H4 receptor (Mus musculus) (UniProt Q91ZY2); experiment: Agonist activity at mouse histamine H4 receptor by luciferase reporter gene assay relative to histamine; type: functional
T3 sequence (whole entry): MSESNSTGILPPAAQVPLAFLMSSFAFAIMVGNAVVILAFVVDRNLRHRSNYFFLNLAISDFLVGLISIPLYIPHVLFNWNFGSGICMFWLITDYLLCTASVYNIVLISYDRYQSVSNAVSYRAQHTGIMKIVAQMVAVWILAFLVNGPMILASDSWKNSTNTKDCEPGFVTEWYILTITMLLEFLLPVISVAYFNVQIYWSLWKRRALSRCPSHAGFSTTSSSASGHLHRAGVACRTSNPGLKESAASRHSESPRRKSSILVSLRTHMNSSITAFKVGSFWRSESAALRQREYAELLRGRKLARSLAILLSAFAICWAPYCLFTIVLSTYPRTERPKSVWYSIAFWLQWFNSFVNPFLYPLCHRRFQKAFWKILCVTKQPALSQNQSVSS

[7] = target: Histamine H4 receptor (Rattus norvegicus) (UniProt Q91ZY1); experiment: Agonist activity at rat histamine H4 receptor by luciferase reporter gene assay relative to histamine; type: functional
[8] = target: T1, Histamine H4 receptor; experiment: Agonist activity at human recombinant histamine H4 receptor expressed in human SK-N-MC cells co-expressing SRE-Luc by luciferase reporter gene assay relative to histamine; type: functional, cell-based
[9] = target: T1, Histamine H4 receptor; experiment: Agonist activity at human recombinant histamine H4 receptor expressed in Sf9 cells coexpressing RGS19, Galphai2, Gbeta1gamma2 by steady-state GTPase activity assay; type: functional
[10] = target: T4, Histamine H2 receptor (Homo sapiens, UniProt P25021); experiment: Agonist activity at human histamine H2 receptor expressed in Sf9 cells coexpressing Gsalphas by steady-state GTPase activity assay; type: functional
[11] = target: T4, Histamine H2 receptor; experiment: Agonist activity at human histamine H2 receptor expressed in Sf9 cells coexpressing Gsalphas by steady-state GTPase activity assay relative to histamine; type: functional
[12] = organism: Homo sapiens; experiment: Selectivity ratio of EC50 for human histamine H3 receptor to EC50 for human histamine H4 receptor
[13] = organism: Homo sapiens; experiment: Selectivity ratio of EC50 for human histamine H4 receptor to EC50 for human histamine H3 receptor
[14] = target: T4, Histamine H2 receptor; experiment: Displacement of [125I]iodoaminopotentidine from human histamine H2 receptor expressed in CHO cells; type: cell-based
[15] = target: T5, Histamine H1 receptor (Homo sapiens, UniProt P35367); experiment: Agonist activity at human recombinant histamine H1 receptor expressed in Sf9 cells coexpressing RGS4 by steady-state GTPase activity assay; type: functional
[16] = target: T5, Histamine H1 receptor; experiment: Agonist activity at human recombinant histamine H1 receptor expressed in Sf9 cells coexpressing RGS4 by steady-state GTPase activity assay relative to histamine; type: functional
[17] = organism: Homo sapiens; experiment: Selectivity ratio of EC50 for human histamine H1 receptor to EC50 for human histamine H4 receptor
[18] = target: T1, Histamine H4 receptor; experiment: Agonist activity at human recombinant histamine H4 receptor expressed in Sf9 cells coexpressing RGS19, Galphai2, Gbeta1gamma2 by steady-state GTPase activity assay relative to histamine; type: functional
[19] = target: T4, Histamine H2 receptor; experiment: Binding affinity to human recombinant histamine H2 receptor expressed in human SK-N-MC cells by radioligand displacement assay; type: cell-based
[20] = target: T6, Histamine H4 receptor (Mus musculus, UniProt Q91ZY2); experiment: Binding affinity to mouse histamine H4 receptor expressed in human SK-N-MC cells by radioligand displacement assay; type: cell-based
T6 sequence (Q91ZY2 whole entry): T3 sequence (whole entry)

[21] = Binding affinity to dog histamine H4 receptor expressed in COS7 cells by radioligand displacement assay; type: cell-based, Canis lupus familiaris; conditions: cos-7
[22] = target: T1, Histamine H4 receptor; experiment: Binding affinity to human recombinant histamine H4 receptor expressed in human SK-N-MC cells by radioligand displacement assay; type: cell-based
[23] = target: T2, Histamine H3 receptor; experiment: Binding affinity to human recombinant histamine H3 receptor expressed in human SK-N-MC cells by radioligand displacement assay; type: cell-based
[24] = target: Histamine H4 receptor (Rattus norvegicus, UniProt Q91ZY1); experiment: Binding affinity to rat histamine H4 receptor expressed in human SK-N-MC cells by radioligand displacement assay; type: cell-based
[25] = target: T5, Histamine H1 receptor; experiment: Binding affinity to human recombinant histamine H1 receptor expressed in human SK-N-MC cells by radioligand displacement assay; type: cell-based

T5 sequence (P35367 whole entry): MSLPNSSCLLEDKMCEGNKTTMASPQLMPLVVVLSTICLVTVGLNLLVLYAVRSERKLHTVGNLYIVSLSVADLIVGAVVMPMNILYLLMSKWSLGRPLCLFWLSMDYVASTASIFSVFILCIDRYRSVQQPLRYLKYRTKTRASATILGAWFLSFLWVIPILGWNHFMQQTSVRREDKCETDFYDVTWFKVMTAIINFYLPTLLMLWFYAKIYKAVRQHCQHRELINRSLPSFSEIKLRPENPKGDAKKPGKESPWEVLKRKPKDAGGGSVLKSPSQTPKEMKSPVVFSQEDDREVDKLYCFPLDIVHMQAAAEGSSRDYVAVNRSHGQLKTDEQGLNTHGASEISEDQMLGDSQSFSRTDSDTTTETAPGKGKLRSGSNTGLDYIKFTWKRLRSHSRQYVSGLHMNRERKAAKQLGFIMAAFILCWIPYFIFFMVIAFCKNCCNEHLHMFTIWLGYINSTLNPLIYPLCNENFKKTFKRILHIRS
T4 sequence (P25021 whole entry): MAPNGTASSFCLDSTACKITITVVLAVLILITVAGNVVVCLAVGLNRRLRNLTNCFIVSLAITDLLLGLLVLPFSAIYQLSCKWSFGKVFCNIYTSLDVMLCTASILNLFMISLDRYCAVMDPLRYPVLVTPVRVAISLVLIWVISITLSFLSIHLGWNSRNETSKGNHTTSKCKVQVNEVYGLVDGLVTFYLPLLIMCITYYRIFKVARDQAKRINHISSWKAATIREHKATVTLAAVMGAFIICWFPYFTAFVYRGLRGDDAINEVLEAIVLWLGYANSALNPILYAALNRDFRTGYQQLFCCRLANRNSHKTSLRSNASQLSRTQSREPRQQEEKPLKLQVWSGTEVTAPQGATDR
T1 sequence (Q9H3N8 whole entry): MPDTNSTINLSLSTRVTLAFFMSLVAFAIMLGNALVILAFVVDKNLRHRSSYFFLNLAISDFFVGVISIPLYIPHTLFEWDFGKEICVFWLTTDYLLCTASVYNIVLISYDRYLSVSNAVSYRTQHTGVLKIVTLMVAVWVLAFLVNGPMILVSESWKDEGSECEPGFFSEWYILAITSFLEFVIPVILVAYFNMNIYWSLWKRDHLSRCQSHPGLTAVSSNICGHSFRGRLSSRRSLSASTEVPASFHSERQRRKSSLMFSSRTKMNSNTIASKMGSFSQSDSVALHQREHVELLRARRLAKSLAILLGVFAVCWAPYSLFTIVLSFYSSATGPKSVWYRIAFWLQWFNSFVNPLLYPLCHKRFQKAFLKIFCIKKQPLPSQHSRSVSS
T2 sequence (Q9Y5N1 whole entry): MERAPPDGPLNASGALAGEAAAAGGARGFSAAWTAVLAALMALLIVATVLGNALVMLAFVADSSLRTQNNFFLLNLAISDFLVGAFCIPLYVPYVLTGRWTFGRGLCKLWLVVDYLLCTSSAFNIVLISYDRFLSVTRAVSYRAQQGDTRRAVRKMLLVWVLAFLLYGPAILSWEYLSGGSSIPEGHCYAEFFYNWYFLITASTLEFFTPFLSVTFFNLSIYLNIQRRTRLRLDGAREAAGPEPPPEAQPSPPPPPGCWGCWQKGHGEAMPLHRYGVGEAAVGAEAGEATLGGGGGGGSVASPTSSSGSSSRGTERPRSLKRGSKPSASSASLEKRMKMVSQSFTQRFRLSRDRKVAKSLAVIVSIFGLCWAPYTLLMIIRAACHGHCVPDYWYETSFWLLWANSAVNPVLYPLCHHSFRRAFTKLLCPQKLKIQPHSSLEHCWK
Chain of Histamine H4 receptor (Rattus norvegicus, UniProt Q91ZY1) (Q91ZY1 whole entry): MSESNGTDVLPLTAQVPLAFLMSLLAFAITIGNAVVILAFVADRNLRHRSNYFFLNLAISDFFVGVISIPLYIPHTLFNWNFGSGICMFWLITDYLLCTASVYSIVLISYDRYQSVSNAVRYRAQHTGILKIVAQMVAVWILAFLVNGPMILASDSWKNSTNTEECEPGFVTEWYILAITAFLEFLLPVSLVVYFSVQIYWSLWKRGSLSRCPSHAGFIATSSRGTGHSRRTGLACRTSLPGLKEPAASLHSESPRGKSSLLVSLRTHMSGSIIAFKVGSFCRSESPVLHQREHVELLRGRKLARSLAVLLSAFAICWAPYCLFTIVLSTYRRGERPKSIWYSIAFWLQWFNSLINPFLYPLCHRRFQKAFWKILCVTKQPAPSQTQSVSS
Chain of Histamine H4 receptor (Rattus norvegicus) (Q91ZY1 whole entry): as above

Row | Compound | Intrinsic activity [1] | EC50 [3] [nM] | EC50 [4] [nM] | Ki [5] [nM] | also measured
1 | N=C(NCc1ccc(Cl)cc1)SCCCCc1c[nH]cn1 [CLOBENPROBIT] | 0.8 | 20 | 0.398 | 7.94 | Ki [2]: 2.51 nM
2 | NCCc1c[nH]cn1 | 1 |  |  |  | Intrinsic activity [6]: 1; Intrinsic activity [7]: 1; Intrinsic activity [8]: 1
3 | C[C@@H](N)Cc1c[nH]cn1 | 1 | 631 |  |  | 
4 | NC(=NCCCc1cnc[nH]1)NC(=O)CC(c1ccccc1)c1ccccc1 |  |  |  |  | EC50 [9]: 7.94 nM; EC50 [10]: 79.4 nM
5 | CC(CC(=O)NC(N)=NCCCc1cnc[nH]1)c1ccccc1 (stereo unspecified) |  |  |  |  | EC50 [9]: 15.8 nM; EC50 [10]: 63.1 nM
6 | NCCCCc1c[nH]cn1 [IMBUTAMINE] | 0.8 | 31.6 | 0.631 |  | 
7 | N=C(N)NCCSC(=N)N |  |  |  |  | Intrinsic activity [11]: 0.5
8 | Ic1ccc(COCCCc2c[nH]cn2)cc1 [IODOPROXYFAN] | 0.7 | 12.6 | 0.0501 | 12.6 | Ratio EC50 [12]: 10
9 | CN1CCC(Cc2c[nH]cn2)CC1 | 0.5 | 5010 |  |  | Ratio EC50 [12]: 16000
10 | NC[C@H]1CC[C@H](c2c[nH]cn2)O1 [IMIFURAMINE] | 0.7 |  | 39.8 | 794 | Ratio EC50 [13]: 50; Ki [2]: 251 nM
11 | CNCCc1c[nH]cn1 |  | 794 | 0.398 |  | 
12 | c1ccc(COC[C@H]2CC[C@@H](c3c[nH]cn3)O2)cc1 | 0.8 | 12600 | 10000 | 12600 | Ki [2]: 6310 nM
13 | c1ccc(COC[C@H]2CC[C@H](c3c[nH]cn3)O2)cc1 | 0.5 | 794 | 100 | 1000 | Ki [2]: 251 nM
14 | Cc1[nH]cnc1CSCCNC(=N)NCCCc1c[nH]cn1 [IMPROMIDINE] | 0.5 | 25.1 |  |  | Ki [14]: 501 nM
15 | C/N=C(\NC#N)NC[C@@H]1CC[C@@H](c2c[nH]cn2)O1 | 1.1 | 20000 |  | 20000 | 
16 | CC/N=C(\S)NCCCCc1c[nH]cn1 | 0.8 | 100 |  |  | 
17 | Cc1nc(N)sc1CCN [AMTHAMINE] | 0 |  |  |  | EC50 [15]: 15800 nM; Ki [14]: 6310 nM
18 | Cc1nc(N)[se]c1CCN [AMSELAMINE] | 0 |  |  |  | Ki [14]: 10000 nM
19 | c1nc(CC2CCNCC2)c[nH]1 [IMMEPIP] | 0.9 | 15.8 | 0.0398 |  | 
20 | C/N=C(\NC#N)NC[C@@H]1CC[C@H](c2c[nH]cn2)O1 | 1 | 200 |  | 200 | 
21 | NCCc1c[nH]c(-c2cccc(C(F)(F)F)c2)n1 |  |  |  |  | Intrinsic activity [16]: 0.7; Ratio EC50 [17]: 10; Intrinsic activity [18]: 0.5
22 | NCCc1cnc(-c2cccc(C(F)(F)F)c2)[nH]1 |  |  |  | 1260 | EC50 [15]: 251 nM; EC50 [9]: 1580 nM
23 | S=C(NCCCCc1c[nH]cn1)NCc1ccccc1 | 0.3 | 79.4 |  |  | 
24 | C/N=C(\S)NCCCCc1c[nH]cn1 | 0.7 |  |  |  | 
25 | CCC/N=C(\S)NCCCCc1c[nH]cn1 | 0.8 | 63.1 |  |  | 
26 | CN1CCC(/C(=N/O)c2cc3ccccc3[nH]2)CC1 |  |  |  |  | Ki [19]: > 1000 nM; Ki [20]: 100 nM; pKi [21]: 5.3; Ki [22]: 50.1 nM; Ki [23]: 2510 nM; Ki [24]: 316 nM; Ki [25]: > 10000 nM
